By Ki is commonly meant a dissociation constant, usually derived from enzyme kinetics or from competition with a known ligand.

Some results are limits rather than exact numbers.

The values below come from ChEMBL document CHEMBL4732245, “Synthesis and biological evaluation of novel 4,7-disubstituted coumarins as selective tumor-associated carbonic anhydrase IX and XII inhibitors” (Bioorg Med Chem Lett, 2021).

In test [1] the target is T1, Carbonic anhydrase 9 (Homo sapiens, UniProt Q16790). Kind of test: Inhibition of recombinant human carbonic anhydrase 9 preincubated for 10 mins by stopped flow CO2 hydrase assay.
Another test has as its target Carbonic anhydrase 1 (Homo sapiens, UniProt P00915). Kind of test: Inhibition of recombinant human carbonic anhydrase 1 pre-incubated for 10 mins by stopped flow CO2 hydrase assay.
For the next test, the target named is Carbonic anhydrase 2 (Homo sapiens, UniProt P00918). Kind of test: Inhibition of recombinant human carbonic anhydrase 2 pre-incubated for 10 mins by stopped flow CO2 hydrase assay.
Test [2] has as its target T1, Carbonic anhydrase 9. Kind of test: Inhibition of recombinant human carbonic anhydrase 9 preincubated for 6 hrs at 24 degC by stopped flow CO2 hydrase assay.
Another test concerns the target Carbonic anhydrase 12 (Homo sapiens, UniProt O43570). Kind of test: Inhibition of recombinant human carbonic anhydrase 12 preincubated for 6 hrs at 24 degC by stopped flow CO2 hydrase assay.

Carbonic anhydrase 1, sequence (P00915 whole entry): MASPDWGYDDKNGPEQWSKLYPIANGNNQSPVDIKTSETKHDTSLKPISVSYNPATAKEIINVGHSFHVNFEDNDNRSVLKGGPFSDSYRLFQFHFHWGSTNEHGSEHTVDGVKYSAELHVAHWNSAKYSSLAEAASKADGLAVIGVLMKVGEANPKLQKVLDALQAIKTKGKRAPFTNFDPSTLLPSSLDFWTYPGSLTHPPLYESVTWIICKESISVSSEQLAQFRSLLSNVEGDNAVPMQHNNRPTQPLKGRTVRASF
Carbonic anhydrase 12, sequence (O43570 whole entry): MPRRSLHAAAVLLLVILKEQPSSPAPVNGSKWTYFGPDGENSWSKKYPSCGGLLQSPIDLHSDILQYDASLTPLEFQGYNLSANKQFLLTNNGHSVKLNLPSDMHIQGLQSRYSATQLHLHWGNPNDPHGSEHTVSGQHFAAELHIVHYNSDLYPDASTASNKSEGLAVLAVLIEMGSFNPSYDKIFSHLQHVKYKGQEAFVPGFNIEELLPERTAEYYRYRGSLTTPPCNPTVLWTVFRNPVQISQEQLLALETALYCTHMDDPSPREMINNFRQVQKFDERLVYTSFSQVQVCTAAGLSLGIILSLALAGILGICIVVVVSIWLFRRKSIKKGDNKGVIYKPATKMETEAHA

As for `COc1ccc(N2CCN(Cc3cc(=O)oc4cc(OCc5cccc(Cl)c5)ccc34)CC2)cc1`, the values for the Ki at Carbonic anhydrase 9 [1], at Carbonic anhydrase 1 and at Carbonic anhydrase 2 were 7.29 µM, more than 100 µM and more than 100 µM, respectively.
As to `COc1ccc(N2CCN(Cc3cc(=O)oc4cc(OCc5cccc(Br)c5)ccc34)CC2)cc1`, the Ki at Carbonic anhydrase 9 [1] is 3.47 µM; on Carbonic anhydrase 1, more than 100 µM; on Carbonic anhydrase 2, more than 100 µM.
For the compound `O=c1cc(CN2CCN(Cc3ccccc3)CC2)c2ccc(OCc3ccc([N+](=O)[O-])cc3)cc2o1`, the Ki at Carbonic anhydrase 9 [1] is 3.16 µM; on Carbonic anhydrase 1 it was more than 100 µM; on Carbonic anhydrase 2 it was more than 100 µM.
For the compound `O=c1cc(CN2CCN(Cc3ccccc3)CC2)c2ccc(OCc3cccc(Br)c3)cc2o1`, the Ki was 0.85 µM at Carbonic anhydrase 9 [1], more than 100 µM at Carbonic anhydrase 1 and more than 100 µM on Carbonic anhydrase 2.
With `COc1ccc(N2CCN(Cc3cc(=O)oc4cc(OCc5ccccc5F)ccc34)CC2)cc1`, the Ki at Carbonic anhydrase 9 [1] is 3.85 µM; on Carbonic anhydrase 1, more than 100 µM; at Carbonic anhydrase 2 it was more than 100 µM.
As for `COc1ccc(N2CCN(Cc3cc(=O)oc4cc(OCc5ccccc5[N+](=O)[O-])ccc34)CC2)cc1`, the Ki at Carbonic anhydrase 9 [1] is 5.39 µM; at Carbonic anhydrase 1 it was more than 100 µM; at Carbonic anhydrase 2 it was more than 100 µM.
For `COc1ccc(N2CCN(Cc3cc(=O)oc4cc(OCc5cccc(OC)c5)ccc34)CC2)cc1`, the Ki at Carbonic anhydrase 9 [1] was 2.55 µM; on Carbonic anhydrase 1, more than 100 µM; on Carbonic anhydrase 2 it was more than 100 µM.
For the compound `COc1ccc(N2CCN(Cc3cc(=O)oc4cc(OCc5ccccc5)ccc34)CC2)cc1`, the Ki at Carbonic anhydrase 9 [1] was 5.52 µM; on Carbonic anhydrase 1 it was more than 100 µM; on Carbonic anhydrase 2, more than 100 µM.
For the compound `COc1ccc(N2CCN(Cc3cc(=O)oc4cc(OCc5ccc(Br)cc5)ccc34)CC2)cc1`, the Ki is 0.89 µM on Carbonic anhydrase 9 [1], more than 100 µM on Carbonic anhydrase 1 and more than 100 µM on Carbonic anhydrase 2.
For the compound `Cc1cc(C)cc(COc2ccc3c(CN4CCN(Cc5ccccc5)CC4)cc(=O)oc3c2)c1`, the Ki was 0.78 µM at Carbonic anhydrase 9 [1], more than 100 µM on Carbonic anhydrase 1 and more than 100 µM at Carbonic anhydrase 2.
In the case of `COc1cccc(COc2ccc3c(CN4CCN(Cc5ccccc5)CC4)cc(=O)oc3c2)c1`, the results for the Ki on Carbonic anhydrase 9 [1], on Carbonic anhydrase 1 and at Carbonic anhydrase 2 were 4.9 µM, more than 100 µM and more than 100 µM, respectively.
In the case of `O=c1cc(CN2CCN(Cc3ccccc3)CC2)c2ccc(OCc3ccccc3[N+](=O)[O-])cc2o1`, the Ki at Carbonic anhydrase 9 [1] was 0.93 µM; at Carbonic anhydrase 1 it was more than 100 µM; on Carbonic anhydrase 2, more than 100 µM.
Consider `O=c1cc(CN2CCN(Cc3ccccc3)CC2)c2ccc(OCc3ccccc3)cc2o1`, for which the figures for the Ki on Carbonic anhydrase 9 [1], on Carbonic anhydrase 1 and at Carbonic anhydrase 2 were 4.9 µM, more than 100 µM and more than 100 µM, respectively.
Take `N#Cc1ccc(Cn2cc(COc3ccc4c(CCl)cc(=O)oc4c3)nn2)cc1`: the Ki is 0.0327 µM at Carbonic anhydrase 9 [2] and 0.624 µM at Carbonic anhydrase 12.
As to `O=c1cc(CN2CCN(Cc3ccccc3)CC2)c2ccc(OCc3ccccc3F)cc2o1`, the Ki at Carbonic anhydrase 9 [1] is 0.91 µM; at Carbonic anhydrase 1, more than 100 µM; at Carbonic anhydrase 2, more than 100 µM.
Turning to `O=c1cc(CN2CCN(Cc3ccccc3)CC2)c2ccc(OCc3cccc(Cl)c3)cc2o1`, the Ki at Carbonic anhydrase 9 [1] was 4.6 µM; on Carbonic anhydrase 1, more than 100 µM; on Carbonic anhydrase 2, more than 100 µM.
For `COc1ccc(N2CCN(Cc3cc(=O)oc4cc(OCc5cc(C)cc(C)c5)ccc34)CC2)cc1`, the Ki at Carbonic anhydrase 9 [1] was 4.55 µM; on Carbonic anhydrase 1 it was more than 100 µM; at Carbonic anhydrase 2, more than 100 µM.
`COc1ccc(N2CCN(Cc3cc(=O)oc4cc(OCc5ccc([N+](=O)[O-])cc5)ccc34)CC2)cc1`: the Ki at Carbonic anhydrase 9 [1] was 2.66 µM; at Carbonic anhydrase 1 it was more than 100 µM; at Carbonic anhydrase 2 it was more than 100 µM.
Take `COc1ccc(CSc2nnc(COc3ccc4c(C)cc(=O)oc4c3)o2)cc1`: the inhibition constant (Ki) at Carbonic anhydrase 9 [1] turned out to be 2.34 µM.
Regarding `O=c1cc(CN2CCN(Cc3ccccc3)CC2)c2ccc(OCc3cc(F)ccc3F)cc2o1`, the Ki at Carbonic anhydrase 9 [1] was 4.43 µM; at Carbonic anhydrase 1, more than 100 µM; on Carbonic anhydrase 2 it was more than 100 µM.
As to `O=c1cc(CN2CCN(Cc3ccccc3)CC2)c2ccc(OCc3ccc(Br)cc3)cc2o1`, the Ki on Carbonic anhydrase 1 and at Carbonic anhydrase 2 was more than 100 µM each time.
